ChEMBL document CHEMBL1131850, “The synthesis and anti-MRSA activity of amidinium-substituted 2-dibenzofuranylcarbapenems” (1999)
In brackets after ≈: the same amount, converted by molar mass.

Assays:
[1] = In vivo inhibitory activity against Staphylococcus aureus MB2985 (methicillin-susceptible) in mouse systemic infection model; assay type: functional
Staphylococcus aureus = test: Compound was tested in vitro for its activity against methicillin-Resistant Staphylococcus Aureus(MRSA 12); assay type: functional
[2] = Compound was tested in vitro for its activity against Methicillin-Resistant Coagulase Negative Staphylococci(MRCNS 9); assay type: functional; conditions: Staphylococcus
Mus musculus [3] = species: Mus musculus; test: Effective dose against Staphylococcus aureus MB2985 (methicillin-susceptible) in mouse systemic infection model; assay type: functional
Mus musculus [4] = test: Compound was evaluated in vivo for plasma MIC in presence of human albumin fraction V (21.5 mg/mL); assay type: functional, organism-based
Mus musculus [5] = test: Compound was evaluated in vivo for percent binding to human albumin fraction V; assay type: functional, organism-based
Mus musculus [6] = species: Mus musculus; test: Plasma MIC against staphylococcus aureus infection in mice in presence of human albumin fraction V (21.5 mg/mL); assay type: functional, organism-based
[7] = Compound was evaluated in vivo for percent binding to human albumin fraction V.; assay type: functional, organism-based

Row | Compound | MIC [1] [µg/mL] | MIC50 (Staphylococcus aureus) [µg/mL] | MIC90 (Staphylococcus aureus) [µg/mL] | MIC50 [2] [µg/mL] | MIC90 [2] [µg/mL] | ED50 (Mus musculus [3]) [mg/kg] | Plasma MIC (Mus musculus [4]) [µg/mL] | PPB (Mus musculus [5]) [%] | Plasma MIC (Mus musculus [6]) [µg/mL] | PPB [7] [%]
1 | C[C@@H](O)[C@H]1C(=O)N2C(C(=O)O)=C(c3cc(C#N)c4oc5ccccc5c4c3)C[C@H]12 | < 0.016 | 0.5 (≈ 1.29 µM) | 1 (≈ 2.57 µM) | 1 (≈ 2.57 µM) | 1 (≈ 2.57 µM) | 1.44 | > 32 | 98 |  | 
2 | C[C@@H](O)[C@H]1C(=O)N2C(C(=O)O)=C(c3cc(C4=NCCN4)c4oc5ccccc5c4c3)C[C@H]12 | ≤ 0.016 | 1 (≈ 2.32 µM) | 1 (≈ 2.32 µM) | 1 (≈ 2.32 µM) | 1 (≈ 2.32 µM) | 0.135 |  |  | 0.063 | 34
3 | C[C@@H](O)[C@H]1C(=O)N2C(C(=O)[O-])=C(c3cc(C4=[N+](C)CCN4C)c4oc5ccccc5c4c3)C[C@H]12 |  | 8 (≈ 17.4 µM) | 32 (≈ 69.6 µM) | 16 (≈ 34.8 µM) | 32 (≈ 69.6 µM) |  |  |  |  | 
4 | C[C@@H](O)[C@H]1C(=O)N2C(C(=O)[O-])=C(c3cc(-c4n(C)cc[n+]4C)c4oc5ccccc5c4c3)C[C@H]12 |  | 4 (≈ 8.74 µM) | 8 (≈ 17.5 µM) | 8 (≈ 17.5 µM) | 16 (≈ 35 µM) |  |  |  |  | 
5 | C[C@@H](O)[C@H]1C(=O)N2C(C(=O)O)=C(c3ccc4oc5ccccc5c4c3)C[C@H]12 |  | 2 (≈ 5.5 µM) | 4 (≈ 11 µM) | 4 (≈ 11 µM) | 8 (≈ 22 µM) |  |  |  |  | 
6 | C[C@@H](O)[C@H]1C(=O)N2C(C(=O)O)=C(c3cc(C(=N)N)c4oc5ccccc5c4c3)C[C@H]12 | 0.031 (≈ 0.0765 µM) | 1 (≈ 2.47 µM) | 2 (≈ 4.93 µM) | 1 (≈ 2.47 µM) | 2 (≈ 4.93 µM) | < 0.096 |  |  | 0.031 | 71
7 | C[C@@H](O)[C@H]1C(=O)N2C(C(=O)O)=C(SCCNC=N)C[C@H]12 [IMIPENEM ANHYDROUS] | 0.01 (≈ 0.0334 µM) | 32 (≈ 107 µM) | 128 (≈ 428 µM) | > 128 | > 128 | 0.026 |  |  | 0.014 | < 5
8 | C[C@@H](O)[C@H]1C(=O)N2C(C(=O)O)=C(c3cc(C4=NCCN4C)c4oc5ccccc5c4c3)C[C@H]12 |  | 2 (≈ 4.49 µM) | 4 (≈ 8.98 µM) | 2 (≈ 4.49 µM) | 4 (≈ 8.98 µM) |  |  |  |  | 
9 | CN[C@H](CC(C)C)C(=O)N[C@H]1C(=O)N[C@@H](CC(N)=O)C(=O)N[C@H]2C(=O)N[C@H]3C(=O)N[C@H](C(=O)N[C@H](C(=O)O)c4cc(O)cc(O)c4-c4cc3ccc4O)[C@H](O)c3ccc(c(Cl)c3)Oc3cc2cc(c3O[C@@H]2O[C@H](CO)[C@@H](O)[C@H](O)[C@H]2O[C@H]2C[C@](C)(N)[C@H](O)[C@H](C)O2)Oc2ccc(cc2Cl)[C@H]1O [VANCOMYCIN] |  | 1 (≈ 0.69 µM) | 2 (≈ 1.38 µM) | 4 (≈ 2.76 µM) | 8 (≈ 5.52 µM) |  |  |  |  | 
10 | C[C@@H](O)[C@H]1C(=O)N2C(C(=O)O)=C(c3cc(C(=N)N(C)C)c4oc5ccccc5c4c3)C[C@H]12 |  | 2 (≈ 4.61 µM) | 8 (≈ 18.5 µM) | 4 (≈ 9.23 µM) | 8 (≈ 18.5 µM) |  |  |  |  | 
11 | C[C@@H](O)[C@H]1C(=O)N2C(C(=O)O)=C(c3cc(C4=NCCCN4)c4oc5ccccc5c4c3)C[C@H]12 |  | 1 (≈ 2.24 µM) | 2 (≈ 4.49 µM) | 2 (≈ 4.49 µM) | 4 (≈ 8.98 µM) |  |  |  |  | 
12 | CNC(=N)c1cc(C2=C(C(=O)O)N3C(=O)[C@H]([C@@H](C)O)[C@H]3C2)cc2c1oc1ccccc12 |  | 1 (≈ 2.38 µM) | 4 (≈ 9.54 µM) | 2 (≈ 4.77 µM) | 2 (≈ 4.77 µM) |  |  |  |  | 
13 | C[C@@H](O)[C@H]1C(=O)N2C(C(=O)O)=C(c3cc(C(N)=O)c4oc5ccccc5c4c3)C[C@H]12 | 0.031 (≈ 0.0763 µM) | 0.5 (≈ 1.23 µM) | 1 (≈ 2.46 µM) | 2 (≈ 4.92 µM) | 2 (≈ 4.92 µM) | 0.55 | 1 |  |  | 95
